According to patent publication US10201532B2, “Compounds and their use” (ALLECRA THERAPEUTICS GMBH, priority 2010, dated 2019):

What was measured:
[1] = tested on: KPC-2 producing K. pneumoniae (ATCC BAA-1705); test: Synergistic broth micro-dilution MIC (checkerboard); assay type: cell-based, Klebsiella pneumoniae; details: ATCC BAA-1705; for MIC: Klebsiella pneumoniae, ATCCBAA1705, no BLI, read-out: MIC of antibiotic alone (no BLI)
[2] = tested on: KPC-3 expressing E. coli (J53 R6206); test: microbe, parasite or virus in culture; assay type: cell-based, Escherichia coli; details: no BLI; E. coli J53 R6206
Method: The β-lactam compound was tested for in vitro antibacterial activities by the broth micro-dilution or agar dilution method as specified in documents published by Clinical and Laboratory Standards Institute (CLSI), USA (formerly NCCLS). Approved standard M7-A7, January 2006, CLSI, Wayne, Pa., USA and M100-S18, January 2008, CLSI, Wayne, Pa., USA.
In agar dilution method briefly, stock solutions of the cephalosporins for veterinary use (e.g. 2 mg/mL) was made in water, 0.1M phosphate buffers or appropriate solvents and the solution was serially two fold diluted. Compound-1 was dissolved in water and Tazobactam (comparator BLI) in 0.1M phosphate buffer, pH 6.0 to get a solution of 1 mg/mL. Cephalosporins were screened in a concentration range of 0.5-32 μg/mL. For combination, Tazobactam or the Compound-1 described herein were tested at a fixed concentration of 4 μg/mL along with the cephalosporins concentration ranging from 0.5 to 32 μg/mL. […] The compound of formula (I) and Tazobactam were also tested individually. The bacterial inoculum was prepared by picking 3 to 5 well isolated bacterial colonies with the same morphological appearance from an 18-24 h old culture and adjusting the turbidity of the saline suspension to 0.5 McFarland turbidity standard equivalent to a bacterial population of ˜1×10^8 CFU per mL of suspension. The suspension was diluted 1:10 in saline to get a bacterial population of ˜1×10^7 CFU/mL as inoculum. This bacterial inoculum was inoculated onto the prepared petri dishes by a multipoint inoculator with each inoculum spot containing ˜1×10^4 CFU of the bacterial strain. The inoculated petri dishes were incubated at 35° C. in an ambient atmosphere for 18-20 h.

[3] = tested on: KPC-3 expressing E. coli (J53 R6206); test: Synergistic broth micro-dilution MIC (checkerboard); assay type: cell-based, Escherichia coli
E. coli Ecoli233 (KPC3) = test: Synergistic broth micro-dilution MIC; assay type: cell-based, Escherichia coli

SMILES | MIC [1] | MIC of BLI alone [3] | MIC of Imipenem in combination with BLI ([3]; BLI at 4 μg/mL) | MIC of Meropenem in combination with BLI ([3]; BLI at 4 μg/mL) | MIC of Imipenem in combination with BLI ([3]; BLI at 16 μg/mL) | MIC of Meropenem in combination with BLI ([3]; BLI at 16 μg/mL) | MIC of BLI alone [1] | MIC of Imipenem in combination with BLI ([1]; BLI at 4 μg/mL) | MIC of Meropenem in combination with BLI ([1]; BLI at 4 μg/mL) | MIC of Imipenem in combination with BLI ([1]; BLI at 16 μg/mL) | MIC of Meropenem in combination with BLI ([1]; BLI at 16 μg/mL) | also measured
CC1=C(C(=O)O)N2C(=O)[C@@H](NC(=O)[C@H](N)c3ccc(O)cc3)[C@H]2SC1 [Cefadroxil] | > 64 mg/L |  |  |  |  |  |  |  |  |  |  | MIC of veterinary cephalosporin alone (no BLI) [2]: >32 mg/L
NC(=O)c1cc[n+](CC2=C(C(=O)[O-])N3C(=O)[C@@H](NC(=O)Cc4cccs4)[C@H]3SC2)cc1 [Cefalonium] | > 64 mg/L |  |  |  |  |  |  |  |  |  |  | MIC of veterinary cephalosporin alone (no BLI) [2]: 32 mg/L
CO/N=C(\C(=O)N[C@@H]1C(=O)N2C(C(=O)[O-])=C(C[N+]3(C)CCCC3)CS[C@H]12)c1csc(N)n1 [Cefepime] | > 128 mg/L |  |  |  |  |  |  |  |  |  |  | MIC of antibiotic alone (no BLI) [3]: >16 mg/L
CO/N=C(\C(=O)N[C@@H]1C(=O)N2C(C(=O)O)=C(COC(C)=O)CS[C@H]12)c1csc(N)n1 [Cefotaxime] | > 128 mg/L |  |  |  |  |  |  |  |  |  |  | MIC of antibiotic alone (no BLI) [3]: >32 mg/L
CO/N=C(\C(=O)N[C@@H]1C(=O)N2C(C(=O)[O-])=C(C[n+]3cccc4c3CCCC4)CS[C@H]12)c1csc(N)n1 [Cefquinome] |  |  |  |  |  |  |  |  |  |  |  | MIC of antibiotic alone (no BLI) ([1]; no BLI): >64 mg/L; MIC of veterinary cephalosporin alone (no BLI) [2]: 16 mg/L
CO/N=C(\C(=O)N[C@@H]1C(=O)N2C(C(=O)O)=C(CSC(=O)c3ccco3)CS[C@H]12)c1csc(N)n1 [Ceftiofur] | > 64 mg/L |  |  |  |  |  |  |  |  |  |  | MIC of veterinary cephalosporin alone (no BLI) [2]: 16 mg/L
Nc1nc(/C(=N/O)C(=O)N[C@@H]2C(=O)N3C(C(=O)O)=C(/C=C4\CCN([C@@H]5CCNC5)C4=O)CS[C@H]23)ns1 [Ceftobiprole] | > 64 mg/L |  |  |  |  |  |  |  |  |  |  | MIC of antibiotic alone (no BLI) [3]: >32 mg/L
CC[n+]1ccn(C[C@@]2(C)[C@H](C(=O)O)N3C(=O)C[C@H]3S2(=O)=O)n1 [Compound-2, 1-{[(2S,3S,5R)-2-Carboxy-3-methyl-4,4,7-trioxo-4-thia-1-azabicyclo[3.2.0]hept-3-yl]methyl}-3-ethyl-1H-1,2,3-triazol-3-ium] |  | >16 mg/L | 0.5 mg/L | <0.125 mg/L | 0.25 mg/L | <0.125 mg/L | >16 mg/L | 4 mg/L | 8 mg/L | 1 mg/L | 2 mg/L | 
C=CC[n+]1ccn(C[C@@]2(C)[C@H](C(=O)O)N3C(=O)C[C@H]3S2(=O)=O)n1 [Compound-4, 1-{[(2S,3S,5R)-2-Carboxy-3-methyl-4,4,7-trioxo-4-thia-1-azabicyclo[3.2.0]hept-3-yl]methyl}-3-allyl-1H-1,2,3-triazol-3-ium] |  | >16 mg/L | 0.5 mg/L | <0.125 mg/L | 0.25 mg/L | <0.125 mg/L | >16 mg/L | 4 mg/L | 8 mg/L | 1 mg/L | 4 mg/L | 
C[C@]1(Cn2cc[n+](CC(N)=O)n2)[C@H](C(=O)O)N2C(=O)C[C@H]2S1(=O)=O [Compound-5, 1-{[(2S,3S,5R)-2-Carboxy-3-methyl-4,4,7-trioxo-4-thia-1-azabicyclo[3.2.0]hept-3-yl]methyl}-3-(2-amino-2-oxoethyl)-1H-1,2,3-triazol-3-ium] |  | >16 mg/L | 0.5 mg/L | <0.125 mg/L | 0.25 mg/L | <0.125 mg/L | >16 mg/L | 8 mg/L | 8 mg/L | 1 mg/L | 2 mg/L | 
CC(C)(C)OC(=O)C[n+]1ccn(C[C@@]2(C)[C@H](C(=O)O)N3C(=O)C[C@H]3S2(=O)=O)n1 [Compound-6, 1-{[(2S,3S,5R)-2-Carboxy-3-methyl-4,4,7-trioxo-4-thia-1-azabicyclo[3.2.0]hept-3-yl]methyl}-3-(2-t-butoxy-2-oxoethyl)-1H-1,2,3-triazol-3-ium] |  | >16 mg/L | 1 mg/L | 0.5 mg/L | 0.5 mg/L | <0.125 mg/L | >16 mg/L | 8 mg/L | 16 mg/L | 8 mg/L | 4 mg/L | 
CCOC(=O)CNC(=O)C[n+]1ccn(C[C@@]2(C)[C@H](C(=O)O)N3C(=O)C[C@H]3S2(=O)=O)n1 [Compound-8, 1-{[(2S,3S,5R)-2-Carboxy-3-methyl-4,4,7-trioxo-4-thia-1-azabicyclo[3.2.0]hept-3-yl]methyl}-3-{2[(2-ethoxy-2-oxoethyl)amino]-2-oxoethyl}-1H-1,2,3-triazol-3-ium] |  | >16 mg/L | 1 mg/L | 0.25 mg/L | 0.25 mg/L | <0.125 mg/L | >16 mg/L | 8 mg/L | 8 mg/L | 4 mg/L | 4 mg/L | 
Cc1cn(C[C@@]2(C)[C@H](C(=O)[O-])N3C(=O)C[C@H]3S2(=O)=O)c[n+]1C [Compound-13, (2S,3S,5R)-3-Methyl-3-(4-methyl-3-methyl-imidazol-3-ium-1-ylmethyl)-4,4,7-trioxo-4-thia-1-aza-bicyclo[3.2.0]heptane-2-carboxylate] |  |  |  |  |  |  |  | 2 mg/L |  | 2 mg/L |  | MIC of Imipenem in combination with BLI (E. coli Ecoli233 (KPC3); BLI at 4 μg/mL): 8 mg/L; MIC of Imipenem in combination with BLI (E. coli Ecoli233 (KPC3); BLI at 16 μg/mL): 1 mg/L
C[C@@H](O)[C@H]1C(=O)N2C(C(=O)O)=C(S[C@@H]3CN[C@H](C(=O)Nc4cccc(C(=O)O)c4)C3)[C@H](C)[C@H]12 [Ertapenem] | > 64 mg/L |  |  |  |  |  |  |  |  |  |  | 
C[C@@H](O)[C@H]1C(=O)N2C(C(=O)O)=C([C@H]3CCCO3)S[C@H]12 [Faropenem] | > 64 mg/L |  |  |  |  |  |  |  |  |  |  | 
C[C@@H](O)[C@H]1C(=O)N2C(C(=O)O)=C(S[C@@H]3CN[C@H](C(=O)N(C)C)C3)[C@H](C)[C@H]12 [Meropenem] | 32 to 64 mg/L |  |  |  |  |  |  |  |  |  |  | MIC of antibiotic alone (no BLI) [3]: 2 to 4 mg/L
